Experiment: log P by HPLC on a reversed-phase column (C 18), EEC Directive 79/831 Annex V.A8
Assay type: physicochemical
Conditions: 0.1% aqueous formic acid and acetonitrile; for logP: 40° C., linear gradient 10% to 90% acetonitrile; for chromatographic logP: Table 3 (amines of formula II), HPLC C 18, 40° C.
Method: In table 1, the log P values were determined in accordance with EEC Directive 79/831 Annex V.A8 by HPLC (High Performance Liquid Chromatography) on a reversed-phase column (C 18), using the method described below:
Temperature: 40° C.; Mobile phases: 0.1% aqueous formic acid and acetonitrile; linear gradient from 10% acetonitrile to 90% acetonitrile.
Calibration was carried out using unbranched alkan-2-ones (comprising 3 to 16 carbon atoms) with known log P values (determination of the log P values by the retention times using linear interpolation between two successive alkanones). lambda-max-values were determined using UV-spectra from 200 nm to 400 nm and the peak values of the chromatographic signals.

[1] = HPLC, reversed-phase column (C 18)
[2] = HPLC on reversed-phase column (C 18)
[3] = reversed-phase HPLC column (C 18)

Row | Structure (SMILES) | chromatographic logP [3] | other results
1 | Cn1nc(C(F)F)c(C(=O)N(Cc2ccc(F)cc2C2(C(F)F)CC2)C2CC2)c1F [I.144] |  | logP [1]: 3.41
2 | Cn1nc(C(F)F)c(C(=O)N(Cc2ccc(F)cc2C2(C(F)F)CC2)C2CC2)c1Cl [I.145] |  | logP [1]: 3.55
3 | Cn1nc(C(F)F)c(C(=O)N(Cc2cc(Br)ccc2C2(C(F)F)CC2)C2CC2)c1F [I.146] |  | logP [1]: 3.76
4 | Cn1nc(C(F)F)c(C(=O)N(Cc2cc(Br)ccc2C2(C(F)F)CC2)C2CC2)c1Cl [I.147] |  | logP [1]: 3.92
5 | Cn1nc(C(F)F)c(C(=O)N(Cc2cc(Cl)ccc2C2(C(F)F)CC2)C2CC2)c1Cl [I.148] |  | logP [1]: 3.85
6 | Cn1nc(C(F)F)c(C(=O)N(Cc2cc(Cl)ccc2C2(C(F)F)CC2)C2CC2)c1F [I.149] |  | logP [1]: 3.70
7 | Cn1nc(C(F)F)c(C(=O)N(Cc2cc(C3CC3)ccc2C2(C(F)F)CC2)C2CC2)c1F [I.150] |  | logP [1]: 3.94
8 | Cn1nc(C(F)F)c(C(=O)N(Cc2cc(F)ccc2C2(C(F)F)CC2)C2CC2)c1Cl [I.152] |  | logP [1]: 3.53
9 | Cc1ccc(C2(C(F)F)CC2)c(CN(C(=O)c2c(C(F)F)nn(C)c2F)C2CC2)c1 [I.153] |  | logP [1]: 3.64
10 | Cc1ccc(C2(C(F)F)CC2)c(CN(C(=O)c2c(C(F)F)nn(C)c2Cl)C2CC2)c1 [I.154] |  | logP [1]: 3.76
11 | Cn1nc(C(F)F)c(C(=O)N(Cc2c(Br)cccc2C2(C(F)F)CC2)C2CC2)c1F [I.155] |  | logP [1]: 3.76
12 | Cn1nc(C(F)F)c(C(=O)N(Cc2c(Br)cccc2C2(C(F)F)CC2)C2CC2)c1Cl [I.156] |  | logP [1]: 3.87
13 | CC(C)CC1(c2cc(Cl)ccc2CN(C(=O)c2c(C(F)F)nn(C)c2F)C2CC2)CC1 [I.157] |  | logP [1]: 5.42
14 | CC(C)CC1(c2cc(Cl)ccc2CN(C(=O)c2c(C(F)F)nn(C)c2Cl)C2CC2)CC1 [I.158] |  | logP [2]: 5.59
15 | Cc1ccc(C2(CC(C)C)CC2)c(CN(C(=O)c2c(C(F)F)nn(C)c2F)C2CC2)c1 [I.159] |  | logP [2]: 5.36
16 | Cc1ccc(C2(CC(C)C)CC2)c(CN(C(=O)c2c(C(F)F)nn(C)c2Cl)C2CC2)c1 [I.160] |  | logP [2]: 5.54
17 | Cn1nc(C(F)F)c(C(=O)N(Cc2ccccc2C2(C(F)(F)F)CC2)C2CC2)c1F [I.161] |  | logP [2]: 2.34

Row | Structure (SMILES) | chromatographic logP [3] | other results
18 | Cn1nc(C(F)F)c(C(=O)N(Cc2ccccc2C2(C(F)(F)F)CC2)C2CC2)c1Cl [I.162] |  | logP [2]: 3.87
19 | Cn1nc(C(F)F)c(C(=O)N(Cc2cc(Cl)ccc2C2(C(F)(F)F)CC2)C2CC2)c1F [I.163] |  | logP [2]: 4.13
20 | Cn1nc(C(F)F)c(C(=O)N(Cc2cc(Cl)ccc2C2(C(F)(F)F)CC2)C2CC2)c1Cl [I.164] |  | logP [2]: 4.30
21 | Cn1nc(C(F)F)c(C(=O)N(Cc2cc(F)ccc2C2(C(F)(F)F)CC2)C2CC2)c1F [I.165] |  | logP [2]: 3.83
22 | Cn1nc(C(F)F)c(C(=O)N(Cc2cc(F)ccc2C2(C(F)(F)F)CC2)C2CC2)c1Cl [I.166] |  | logP [2]: 3.96
23 | Cc1ccc(C2(C(F)(F)F)CC2)c(CN(C(=O)c2c(C(F)F)nn(C)c2F)C2CC2)c1 [I.167] |  | logP [2]: 4.11
24 | Cn1nc(C(F)F)c(C(=O)N(Cc2cc(Cl)c(Cl)cc2C2(C)CC2)C2CC2)c1F [I.180] |  | logP [2]: 4.73
25 | Cn1nc(C(F)F)c(C(=O)N(Cc2cc(Cl)c(Cl)cc2C2(C)CC2)C2CC2)c1Cl [I.181] |  | logP [2]: 4.93
26 | COCC1(c2ccc(C)cc2CN(C(=O)c2c(C(F)F)nn(C)c2F)C2CC2)CC1 [I.182] |  | logP [2]: 3.52
27 | COCC1(c2ccc(C)cc2CN(C(=O)c2c(C(F)F)nn(C)c2Cl)C2CC2)CC1 [I.183] |  | logP [2]: 3.68
28 | CC1(c2ccccc2CNC2CC2)CC1 [II.01, N-[2-(1-methylcyclopropyl)benzyl]cyclopropanamine] | 1.1 | 
29 | CC1(c2c(F)cccc2CNC2CC2)CC1 [II.02, N-[3-fluoro-2-(1-methylcyclopropyl)benzyl]cyclopropanamine] | 1.36 | 
30 | CC1(c2c(CNC3CC3)ccc3c2OCO3)CC1 [II.03, N-{[4-(1-methylcyclopropyl)-1,3-benzodioxol-5-yl]methyl}cyclopropanamine] | 1.43 | 
31 | CC1(c2cc(Cl)ccc2CNC2CC2)CC1 [II.04, N-[4-chloro-2-(1-methylcyclopropyl)benzyl]cyclopropanamine] | 1.54 | 
32 | C[Si](C)(C)C#CC1(c2ccc(Cl)cc2CNC2CC2)CC1 [II.18, N-(5-chloro-2-{1-[(trimethylsilyl)ethynyl]cyclopropyl}benzyl)cyclopropanamine] |  | chromatographic logP: 2.07
33 | Cc1ccc(C2(C#C[Si](C)(C)C)CC2)c(CNC2CC2)c1 [II.19, N-(5-methyl-2-{1-[(trimethylsilyl)ethynyl]cyclopropyl}benzyl)cyclopropanamine] |  | chromatographic logP: 2.05

More lines, main results first:

Row | chromatographic logP [3] | Structure (SMILES) | other results
34 | 1.43 | Cc1ccc(CNC2CC2)c(C2(C)CC2)c1 [II.05, N-[4-methyl-2-(1-methylcyclopropyl)benzyl]cyclopropanamine] | 
35 | 1.68 | Cc1cc(CNC2CC2)c(C2(C)CC2)cc1C [II.06, N-[4,5-dimethyl-2-(1-methylcyclopropyl)benzyl]cyclopropanamine] | 
36 | 1.79 | CC1(c2cc(Cl)c(Cl)cc2CNC2CC2)CC1 [II.07, N-[4,5-dichloro-2-(1-methylcyclopropyl)benzyl]cyclopropanamine] | 
37 | 1.26 | COc1cc(CNC2CC2)c(C2(C)CC2)cc1OC [II.08, N-[4,5-dimethoxy-2-(1-methylcyclopropyl)benzyl]cyclopropanamine] | 
38 | 1.43 | CC1(c2ccc(Br)cc2CNC2CC2)CC1 [II.09, N-[5-bromo-2-(1-methylcyclopropyl)benzyl]cyclopropanamine] | 
39 | 1.7 | CC1(c2ccc(Cl)cc2CNC2CC2)CC1 [II.10, N-[5-chloro-2-(1-methylcyclopropyl)benzyl]cyclopropanamine] | 
40 | 1.37 | CC1(c2ccc(F)cc2CNC2CC2)CC1 [II.11, N-[5-fluoro-2-(1-methylcyclopropyl)benzyl]cyclopropanamine] | 
41 | 1.38 | Cc1ccc(C2(C)CC2)c(CNC2CC2)c1 [II.12, N-[5-methyl-2-(1-methylcyclopropyl)benzyl]cyclopropanamine] | 
42 | 1.45 | Cc1ccc(C2(C)CC2)c(CNC2(C)CC2)c1 [II.13, 1-methyl-N-[5-methyl-2-(1-methylcyclopropyl)benzyl]cyclopropanamine] | 
43 | 4.07 | Cc1ccc(C2(C)CC2)c(CNC2(C#N)CC2)c1 [II.14, 1-{[5-methyl-2-(1-methylcyclopropyl)benzyl]amino}cyclopropanecarbonitrile] | 
44 | 1.22 | C#CC1(c2ccc(Cl)cc2CNC2CC2)CC1 [II.16, N-[5-chloro-2-(1-ethynylcyclopropyl)benzyl]cyclopropanamine] | 
45 | 1.15 | C#CC1(c2ccc(C)cc2CNC2CC2)CC1 [II.17, N-[2-(1-ethynylcyclopropyl)-5-methylbenzyl]cyclopropanamine] | 
46 | 0.77 | N#CC1(c2ccc(Cl)cc2CNC2CC2)CC1 [II.20, 1-{4-chloro-2-[(cyclopropylamino)methyl]phenyl}cyclopropanecarbonitrile] | 
47 | 1.19 | Cc1ccc(C2(C#N)CC2)c(CNC2CC2)c1 [II.21, 1-{2-[(cyclopropylamino)methyl]-4-methylphenyl}cyclopropanecarbonitrile] | 
48 | 1.49 | COCC1(c2ccc(C)cc2CNC2CC2)CC1 [II.22, N-{2-[1-(methoxymethyl)cyclopropyl]-5-methylbenzyl}cyclopropanamine] | 
49 | 1.52 | CCC1(c2ccccc2CNC2CC2)CC1 [II.23, N-[2-(1-ethylcyclopropyl)benzyl]cyclopropanamine] | 
50 | 1.95 | CCC1(c2cc(C(F)(F)F)ccc2CNC2CC2)CC1 [II.24, N-[2-(1-ethylcyclopropyl)-4-(trifluoromethyl)benzyl]cyclopropanamine] | 
51 | 1.65 | CCC1(c2cc(Cl)ccc2CNC2CC2)CC1 [II.25, N-[4-chloro-2-(1-ethylcyclopropyl)benzyl]cyclopropanamine] | 
52 | 1.47 | CCC1(c2cc(C)ccc2CNC2CC2)CC1 [II.26, N-[2-(1-ethylcyclopropyl)-4-methylbenzyl]cyclopropanamine] | 
53 | 1.69 | CCC1(c2cc(C)c(F)cc2CNC2CC2)CC1 [II.27, N-[2-(1-ethylcyclopropyl)-5-fluoro-4-methylbenzyl]cyclopropanamine] | 
54 | 1.82 | CCC1(c2ccc(C(F)(F)F)cc2CNC2CC2)CC1 [II.28, N-[2-(1-ethylcyclopropyl)-5-(trifluoromethyl)benzyl]cyclopropanamine] | 
55 | 1.66 | CCC1(c2ccc(Cl)cc2CNC2CC2)CC1 [II.29, N-[5-chloro-2-(1-ethylcyclopropyl)benzyl]cyclopropanamine] | 
56 | 1.63 | CCC1(c2ccc(C)cc2CNC2CC2)CC1 [II.30, N-[2-(1-ethylcyclopropyl)-5-methylbenzyl]cyclopropanamine] | 
57 | 1.14 | CCC1(c2cccc(F)c2CNC2CC2)CC1 [II.31, N-[2-(1-ethylcyclopropyl)-6-fluorobenzyl]cyclopropanamine] | 
58 | 1.81 | CCCC1(c2ccc(C)cc2CNC2CC2)CC1 [II.33, N-[5-methyl-2-(1-propylcyclopropyl)benzyl]cyclopropanamine] | 
59 | 1.34 | Cc1ccc(C2(Cl)CC2)c(CNC2CC2)c1 [II.34, N-[2-(1-chlorocyclopropyl)-5-methylbenzyl]cyclopropanamine] | 
60 | 1.67 | Cc1ccc(C2(C3CC3)CC2)c(CNC2CC2)c1 [II.35, N-{2-[1,1′-bi(cyclopropyl)-1-yl]-5-methylbenzyl}cyclopropanamine] | 
